Assay results reported in patent publication US20110245249A1, “Heterocyclically Substituted Anilinopyrimidines” (Bayer CropScience AG, priority 2008, published 2011).

Assay: logP by HPLC on reversed-phase columns (EEC Directive 79/831 Annex V.A8)
Assay type: physicochemical
Settings: for log p [a]: pH 2.3; for chromatographic logP: pH 2.7, logP (pH 2.7)
Protocol: The logP values were measured in accordance with EEC Directive 79/831 Annex V.A8 by HPLC (High Performance Liquid Chromatography) on reversed-phase columns (C 18) using the methods below:
[a] The determination was carried out in the acidic range at pH 2.3 using the mobile phases 0.1% aqueous phosphoric acid and acetronitrile linear gradient from 10% acetonitrile to 95% acetronitrile. [b] The LC-MS determination in the acid range was carried out at pH 2.7 using the mobile phases 0.1% aqueous formic acid and acetonitrile (contains 0.1% formic acid) linear gradient from 10% acetonitrile to 95% acetonitrile. [c] The LC-MS determination in the neutral range was carried out at pH 7.8 using the mobile phases 0.001 molar aqueous ammonium bicarbonate solution and acetonitrile linear gradient from 10% acetonitrile to 95% acetonitrile.

Structure (SMILES) | log p [b] (pH 2.7) | log p [c] (pH 7.8) | other results
CC1(c2cccc(Nc3ncc(C(F)(F)F)c(NC4CC4)n3)c2)OCCO1 [Example 11] | 3.03 | 3.46 | –
CCCCC1COC(c2cccc(Nc3ncc(Cl)c(NC4CC4)n3)c2)O1 (stereo not drawn) [Example 39] | 3.16 | 4.4 | –
CC1(C)COC(c2cccc(Nc3ncc(Cl)c(NC4CC4)n3)c2)OC1 [Example 2] | 2.45[b] | – | –
CC1(C)CC(C)(C)OC(c2cccc(Nc3ncc(Cl)c(NC4CC4)n3)c2)O1 [Example 102] | 2.86 | 4.32 | –
Fc1cnc(Nc2cccc(C3OCCO3)c2)nc1NC1CC1 [Example 59] | 1.60[b] | 2.28 | log p [a]: 1.14
O=Cc1cccc(Nc2ncc(Br)c(NC3CC3)n2)c1 [3-{[5-Bromo-4-(cyclopropylamino)pyrimidin-2-yl]amino}benzenecarbaldehyde] | – | – | chromatographic logP: 1.93
CC1(c2cccc(Nc3ncc(C(F)(F)F)c(NCC4CC4)n3)c2)OCCCO1 [Example 68] | 3.42[b] | – | –
CC1OC(c2cccc(Nc3ncc(Cl)c(NC4CC4)n3)c2)OC(C)C1C (stereo not drawn) [Example 98] | 2.77 | 4.21 | –
Fc1ccc(Nc2ncc(C(F)(F)F)c(NC3CC3)n2)cc1C1OCCO1 [Example 143] | – | – | log p (pH 2.7): 2.76; log p (pH 7.8): 3.2
OCC1CSC(c2cccc(Nc3ncc(Cl)c(NC4CCC4)n3)c2)S1 (stereo not drawn) [Example 162] | – | – | log p (pH 2.7): 1.93; log p (pH 7.8): 3.14
Brc1cnc(Nc2cccc(C3OCCO3)c2)nc1NC1CC1 [Example 13] | 1.75 | 2.82 | –
CC1COC(c2cccc(Nc3ncc(C(F)(F)F)c(NC4CCC4)n3)c2)O1 (stereo not drawn) [Example 87] | 3.51 | 4.04 | –
ClCC1COC(c2cccc(Nc3ncc(Cl)c(NC4CC4)n3)c2)O1 (stereo not drawn) [Example 33] | 2.19 | – | log p [a]: 1.85
Clc1cnc(Nc2cccc(C3OCC(c4ccccc4)O3)c2)nc1NC1CC1 (stereo not drawn) [Example 29] | – | 3.93[c] | –
CC(=O)c1ccc(Nc2ncc(Cl)c(NC3CC3)n2)cc1 [1-(4-{[5-Chloro-4-(cyclopropylamino)pyrimidin-2-yl]amino}phenyl)ethanone] | – | – | chromatographic logP: 1.93
Clc1cnc(Nc2cccc(C3OC4CCCCC4O3)c2)nc1NC1CC1 (stereo not drawn) [Example 44] | 2.65 | 3.99 | –
COCC(C)Nc1nc(Nc2cccc(C=O)c2)ncc1Cl (stereo not drawn) [3-({5-Chloro-4-[(1-methoxypropan-2-yl)amino]pyrimidin-2-yl}amino)benzenecarbaldehyde] | – | – | chromatographic logP: 1.8
Clc1cnc(Nc2cccc(C3OCCO3)c2)nc1NCC1CC1 [Example 18] | 1.73 | 3.06 | –
C=C1COC(c2cccc(Nc3ncc(Cl)c(NC4CC4)n3)c2)OC1 [Example 92] | 2.01 | 3.18 | –
CC1(c2cccc(Nc3ncc(C(F)(F)F)c(NCC4CC4)n3)c2)OCCO1 [Example 10] | 3.15[b] | 3.79 | log p [a]: 3.16
CCC1COC(c2cccc(Nc3ncc(Br)c(NC4CCC4)n3)c2)O1 (stereo not drawn) [Example 89] | 2.88 | 4.35 | –
OCC1COC(c2cccc(Nc3ncc(Cl)c(NC4CC4)n3)c2)O1 (stereo not drawn) [Example 42] | 1.16 | 1.96 | –
Clc1cnc(Nc2cccc(C3OCC(CN4CCCC4)O3)c2)nc1NC1CC1 (stereo not drawn) [Example 43] | 0.99[b] | – | –
CCOCCOCC1COC(c2cccc(Nc3ncc(Cl)c(NC4CC4)n3)c2)O1 (stereo not drawn) [Example 154] | – | – | log p (pH 2.7): 2.05; log p (pH 7.8): 3.13
Clc1cnc(Nc2cccc(C3OC4COCC4O3)c2)nc1NC1CC1 (stereo not drawn) [Example 32] | 1.55[b] | – | –

Structure (SMILES) | log p [b] (pH 2.7) | log p [c] (pH 7.8) | other results
Clc1cnc(Nc2cccc(C3OCC(C4CC4)CO3)c2)nc1NC1CC1 (stereo not drawn) [Example 93] | 2.6 | 3.91 | –
O=Cc1cccc(Nc2ncc(Cl)c(NCC(F)F)n2)c1 [3-({5-Chloro-4-[(2,2-difluoroethyl)amino]pyrimidin-2-yl}amino)benzenecarbaldehyde] | – | – | chromatographic logP: 2.01
CC1CSC(c2cccc(Nc3ncc(C(F)(F)F)c(NC4CC4)n3)c2)S1 (stereo not drawn) [Example 155] | – | – | log p (pH 2.7): 4.14; log p (pH 7.8): 4.44
CCOC1COC(c2cccc(Nc3ncc(Cl)c(NC4CC4)n3)c2)OC1 (stereo not drawn) [Example 125] | 2.07 | 3.27 | –
CC1(C)COC(c2cccc(Nc3ncc(Cl)c(NC4CCC4)n3)c2)OC1 [Example 19] | 2.57[b] | 4.13 | log p [a]: 2.29
CCCCOC(OCCCC)c1cccc(Nc2ncc(Cl)c(NC3CC3)n2)c1 [Example 66] | 4.64 | 5.83 | logP (pH 2.7) (pH 2.7): 4.64
CC1(C)COC(c2cccc(Nc3ncc(C(F)(F)F)c(NC4CC4)n3)c2)OC1 [Example 25] | 3.7 | 4.07 | –
CC1CC1Nc1nc(Nc2cccc(C3OCCO3)c2)ncc1Br (stereo not drawn) [Example 131] | – | – | log p (pH 7.8): 3.33[c]
Clc1ccc(Nc2ncc(Cl)c(NC3CC3)n2)cc1C1OCCCO1 [Example 62] | 2.44 | 3.47 | –
C#CCNc1nc(Nc2cccc(C3OCCCO3)c2)ncc1Cl [Example 54] | 1.67[b] | 2.48 | log p [a]: 1.38
CC1COC(c2cccc(Nc3ncc(Cl)c(NC4CC4)n3)c2)OC1 (stereo not drawn) [Example 101] | 2.1 | 3.35 | –
FC(F)(F)c1cnc(Nc2ccc(C3OCCCO3)cc2)nc1NC1CC1 [Example 78] | 2.72 | 3.21 | –
CC1CSC(c2cccc(Nc3ncc(Br)c(NC4CC4)n3)c2)S1 (stereo not drawn) [Example 167] | – | – | log p (pH 2.7): 3.1; log p (pH 7.8): 4.31
CC1CCOC(c2cccc(Nc3ncc(Cl)c(NC4CC4)n3)c2)O1 (stereo not drawn) [Example 97] | 2 | 3.25 | –
FC(F)(F)CNc1nc(Nc2cccc(C3OCCCO3)c2)ncc1Cl [Example 53] | 2.48[b] | 2.86 | log p [a]: 2.08
CC(C)OC(OC(C)C)c1cccc(Nc2ncc(Cl)c(NC3CC3)n2)c1 [Example 65] | – | 4.44[c]; | –
CC1CSC(c2cccc(Nc3ncc(Cl)c(NC4CCC4)n3)c2)S1 (stereo not drawn) [Example 163] | – | – | log p (pH 2.7): 3.23; log p (pH 7.8): 4.72
Brc1cnc(Nc2cccc(C3OCC(C4CC4)CO3)c2)nc1NC1CC1 (stereo not drawn) [Example 79] | 2.77 | 4.03 | –
CC(C)(C)C1CCOC(c2cccc(Nc3ncc(C(F)(F)F)c(NC4CC4)n3)c2)O1 (stereo not drawn) [Example 122] | 4.44 | 4.82 | –
Clc1cnc(Nc2cccc(C3OCC(C4CC4)CO3)c2)nc1NC1CCC1 (stereo not drawn) [Example 80] | 2.93 | 4.43 | –
SCCOC(OCCS)c1cccc(Nc2ncc(Cl)c(NC3CC3)n2)c1 [Example 4] | 1.36 | 2.03 | –
C=CCOCC1COC(c2cccc(Nc3ncc(Cl)c(NC4CCC4)n3)c2)O1 (stereo not drawn) [Example 116] | 2.59 | 4.07 | –
CC(C)(C)OCC1COC(c2cccc(Nc3ncc(Cl)c(NC4CC4)n3)c2)O1 (stereo not drawn) [Example 95] | 2.76 | 4.08 | –
Clc1cnc(Nc2cccc(C3OCCCS3)c2)nc1NC1CC1 (stereo not drawn) [Example 127] | 2.1 | 3.33 | –
